Measurements reported in patent publication US20260224720A1, “ECTEINASCIDIN DERIVATIVE ANTIBODY DRUG CONJUGATES” (priority 2023, published 2026).

Key:
[1] = male mice, previously reported; cited from earlier work
[2] = tested on: SKBR3 (Her2 positive); assay: Adherent cells cytotoxicity assay (CellTiter-Glo), SKBR3; format: cell-based; conditions: Homo sapiens, SK-BR-3, 3 to 5 days
Experimental: (§1) Adherent cells were cultured in a T75 flask to ~50-80% confluency and harvested with trypsin into a single cell suspension. Three to five thousand (3,000-5,000) cells per well were seeded in tissue culture plates in 50 μL/well culture media and incubated at 37° C. for 18-24 hours. Serial dilutions of ADCs in culture media were then dispensed into the plates at 50 μL/well. After plating and treatment, cells were returned to the incubator for an additional 3 to 5 days. CellTiter-Glo reagent was prepared per manufacturer's instructions and added at 100 μL/well to the cultures. CellTiter-Glo allows for relative enumeration of metabolically active cells by quantifying intracellular ATP concentrations. […] Luminescence signals were detected using a standard plate reader and IC50s were calculated by logistic nonlinear regression using GraphPad Prism (GraphPad Software, San Diego, CA).

[3] = tested on: SUDHL1 (CD30 positive); assay: Suspension cells cytotoxicity assay (CellTiter-Glo), SUDHL1; format: cell-based; conditions: Homo sapiens, SU-DHL-1, 3-5 days
Experimental: Three to five thousand (3,000-5,000) cells per well were seeded in tissue culture plates in 50 μL/well culture media and incubated at 37° C. for 18-24 hours.
Serial dilutions of ADCs in culture media were then dispensed into the plates at 50 μL/well. […] CellTiter-Glo reagent was prepared per manufacturer's instructions and added at 100 μL/well to the cultures. CellTiter-Glo allows for relative enumeration of metabolically active cells by quantifying intracellular ATP concentrations. […] Luminescence signals were detected using a standard plate reader and IC50s were calculated by logistic nonlinear regression using GraphPad Prism (GraphPad Software, San Diego, CA).

[4] = tested on: HCC1954 (Her2 positive); assay: Adherent cells cytotoxicity assay (CellTiter-Glo), HCC1954; format: cell-based; conditions: Homo sapiens, 3 to 5 days
Experimental: as §1

[5] = tested on: Confluent HCC1954 (Her2 positive); assay: Adherent cells cytotoxicity assay (CellTiter-Glo), confluent HCC1954; format: cell-based; conditions: Homo sapiens

Row | Compound | maximum tolerated dose (MTD) [1] | IC50 [2] | IC50 [3] | IC50 [4] | IC50 [5]
1 | COc1cc2c(cc1O)CCN[C@]21CS[C@@H]2c3c(OC(C)=O)c(C)c4c(c3[C@H](COC1=O)N1[C@@H]2[C@H]2c3c(cc(C)c(OC)c3O)C[C@@H]([C@@H]1O)N2C)OCO4 [trabectedin] | 0.15 mg/kg | – | – | – | –
2 | COc1ccc2[nH]c3c(c2c1)CCN(C(N1CCCC1)N1CCCC1)[C@]31CS[C@@H]2c3c(OC(C)=O)c(C)c4c(c3[C@H](COC1=O)N1C2[C@H]2c3c(cc(C)c(OC)c3O)C[C@@H](C1O)N2C)OCO4 (some centres unmarked) [Lurbinectedin Derivative 1] | – | 0.542 nM | 0.625 nM | 2.58 nM | 3.7 nM
